Assay results: a melting point compilation (Tetko et al.; mined from patent text by program, amines drawn as free bases though some values may be those of a salt)

melting point	Structure (SMILES)
147 to 149 °C	O=S(=O)(c1ccc(Cl)cc1)C(CCO)c1cc(F)ccc1F (stereo not given)
87 to 88 °C	COc1ccc(CC(=O)N2CCC3(CC2)Cc2ccccc2O3)cc1
87 to 88 °C	IC=CC(CC1CCCC1)OC(c1ccccc1)(c1ccccc1)c1ccccc1 (stereo not given)
138 °C	CC(C)(Oc1ccc(CC(=O)Nc2cc(Cl)cc(Cl)c2)cc1)C(=O)O
130 to 135 °C	CC1CCN(Cc2cccc(OCCCNS(=O)(=O)CCNc3ccc(Cl)c(Cl)c3)c2)CC1
120 to 140 °C	COc1c(Cl)c(Cl)c2c(-c3ccccc3F)noc2c1Cl
148 to 150 °C	CN(C)C=Nc1nc(CN2CCN(C(c3ccccc3)c3ccccc3)CC2)cs1
162 °C	COC(=O)c1c(C(F)(F)F)[nH]c2c(OCc3ccccc3)cc3c(c12)C(CCl)CN3C(=O)OC(C)(C)C (stereo not given)
119 °C	CC(C)(C)OC(=O)N1CCOc2ccc(Br)cc2S1(=O)=O
98 to 100 °C	CCCCCCCN(CCCCCSc1nc2c([nH]1)CCCC2)C(=O)Nc1ccc(F)cc1F
133 to 135 °C	CCOC(=O)NCCc1cccc(-c2ccnc3c(C#N)cnn23)c1
183 to 185 °C	C#CCOc1c(-c2ccccc2)c(=O)[nH]c2cc(Cl)ccc12
181 to 185 °C	CC(=O)N(C)c1cccnc1S(N)(=O)=O
200 to 203 °C	CCc1ccc2c(c1)OC1(O)c3cccc(N)c3C(=O)C21O (stereo not given)
269 to 270 °C	COc1cc2nc(N3CCN(c4ccc(Cl)nn4)CC3)nc(N)c2cc1OC
144 to 146 °C	OC1(c2ccc(Cl)c(Cl)c2)CCNCC1
162 to 164 °C	COc1ccc2nc(Cl)cc(C=CN(C)C)c2c1

Second part, the compound before the results:

Structure (SMILES)	melting point
Cc1nsc(-n2cc(C(=O)O)c(=O)c3cc(F)c(N4CCCC4)nc32)n1	> 300 °C
CCCCCCNc1nc[nH]c2nccc1-2	147 to 148 °C
CCCCCc1scc(C(=O)OC)c1NC1=CC(=O)N(CCC)C1	> 285 °C
CCCC(=O)Nc1cccc(N(CCO)CCO)c1	88 to 90 °C
CC1(C)NCC(=O)N1CC(N)=O	144 to 146 °C
O=C(CBr)CCCCCCN1C(=O)c2ccccc2C1=O	83 to 86 °C
CS(=O)(=O)c1ccc(-c2cc(C(=O)CCCO)nn2C2CCCCC2)cc1	112 to 114 °C
CC1NC(=O)NN=C1c1ccc(OCC(=O)NN)c(Cl)c1 (stereo not given)	252 to 254 °C
Cc1ncc(CN2CCCNC2=C[N+](=O)[O-])s1	204 to 207 °C
CCn1c(=O)c2c(nc(C=Cc3cccc(C(=O)O)c3)n2C)n(CC)c1=O	260 to 262 °C
O=C(CBr)c1ccc(Br)s1	79 °C
O=C(CCCCC(=O)N1CCN(c2cnccn2)CC1)c1ccc(Cl)cc1	138 to 140 °C
CCc1ncc(CO)c(NCc2ccc(-c3ccccc3-c3nnnn3C(c3ccccc3)(c3ccccc3)c3ccccc3)cc2)n1	118 to 120 °C
NC(=O)C1CCCc2c1c1cc(OCCCC(=O)O)ccc1n2Cc1ccccc1 (stereo not given)	199 to 200 °C
O=c1[nH]c2ccc(O)cc2n1CCN1CCN(c2cccc(C(F)(F)F)c2)CC1	> 250 °C
COc1ccc(P2Oc3ccccc3-c3ccccc32)cc1 (stereo not given)	104 to 106 °C
O=C(/C=C/[C@@H]1[C@H]2CC(=O)O[C@H]2C[C@H]1OC(=O)c1ccc(-c2ccccc2)cc1)COc1cccc(C(F)(F)F)c1	115 to 116 °C
CCCOc1ccc(S(C)(=O)=O)cc1-c1nc2c(CC)nn(Cc3ccccn3)c2c(=O)[nH]1	209 to 211 °C
Oc1ccc2[nH]cc(CCN3CCC(O)(c4ccccc4)CC3)c2c1	150 °C
CC(=O)N(C1=C(NC2CC2)C(=O)c2c(cnn2C)C1=O)C1CC1	75 to 78 °C
CCCN1N=C2C(=Cc3ccccc3)COCC2C1c1ccccc1 (stereo not given)	114 to 115 °C
CCOC(=O)c1c(=O)c2cc3c(cc2n2c(C)csc12)OCO3	308 to 311 °C
CNCCc1ccc2[nH]cc(S(=O)(=O)c3ccccc3)c2c1	151 to 154 °C
